Source: patent US12491233B2, “Pharmaceutical composition, for preventing or treating Charcot-Marie-Tooth disorder, comprising mesenchymal stem cells or insulin secreted by mesenchymal stem cells” (SAMSUNG LIFE PUBLIC WELFARE FOUNDATION, priority 2020, dated 2025)

What was measured:
[1] = test system: Charcot-Marie-Tooth disease mice; assay: MRI of gastrocnemius muscle tissue, cross-sectional area and volume; format: in vivo; conditions: 12 U/kg intravenously, after two weeks; for CSA: MRI; for Volume: from cross-sectional area
Experimental: 5-Week-old Charcot-Marie-Tooth disease mice were intravenously administered with 12 U/kg insulin and, after two weeks, the gastrocnemius muscle tissue was observed by the MRI system. In addition, the cross-sectional area of the muscle tissue was measured to obtain the volume of the muscle tissue, and the results are shown in FIG. 9E and Table 18.

[2] = test system: Charcot-Marie-Tooth disease mice; assay: Grip strength testing in Charcot-Marie-Tooth disease mice; format: in vivo; conditions: 5-week-old CMT mice, 12 U/kg intravenously, after two weeks; WT 8.9, sham 6.2
Description: 5-Week-old Charcot-Marie-Tooth disease mice were intravenously administered with 12 U/kg insulin and, after two weeks, examined for behavioral performance increase through grip strength testing as in Example 5.

Schwann cells [3] = assay: ATP measurement, CellTiter-Glo Luminescent Cell Viability Assay; format: cell-based; conditions: relative to 0 nM = 1
Experimental: (§1) The cultured Schwann cells were treated with insulin at 0, 1, 10, 50, 100, 200, 500, or 1000 nM, and then the degree of cell proliferation was determined by measurement of the absorbance at 450 nm using a spectrophotometer by using the CCK-8 (Dojindo) test method. ATP was measured using the CellTiter-Glo Luminescent Cell Viability Assay (Promega Corporation), and finally, 5-bromo-2′-deoxyuridine (BrdU) bound during DNA synthesis in cells was identified. In this test method, analysis was performed using Cell Proliferation ELISA, BrdU (colorimetric) (Roche). BrdU was added to the cells, followed by incubation for 24 hours, and then the cells were fixed, followed by DNA denaturation, and then treated with Anti-BrdU antibody. The cells were incubated with TMB substrate by using HRP-linked secondary antibody, and the absorbance at 370 nm was measured in a spectrophotometer.

Dystrophin = assay: Myogenesis of gastrocnemius muscle tissue, dystrophin fluorescent antibody; format: in vivo, mice
Experimental: 5-Week-old Charcot-Marie-Tooth disease mice were intravenously administered with 12 U/kg insulin, and after two weeks, the gastrocnemius muscle tissue was collected. Then, the increase in myogenesis was measured using the dystrophin antibody by the same method as in protein expression analysis using a fluorescent antibody in Example 7, and the results are shown in FIGS. 9A and 9B and Table 16.

MPZ [4] = assay: MPZ expression level in sciatic nerve tissue by western blotting; format: in vivo, mice; conditions: 12 U/kg intravenously, after two weeks, WT = 100, sham 3.84
Experimental: 5-Week-old Charcot-Marie-Tooth disease mice were intravenously administered with 12 U/kg insulin, and after two weeks, the sciatic nerve tissue was collected and then the MPZ expression level was determined using MPZ antibody by the same method as in protein expression analysis through western blotting in Example 3, and the results are shown in FIGS. 8F and 8G and Table 15.

Schwann cells [5] = assay: CCK-8 cell proliferation of insulin-treated Schwann cells; format: cell-based; conditions: for CCK-8: relative to 0 nM = 1
Experimental: as §1

[6] = test system: Charcot-Marie-Tooth disease mice; assay: Rotarod testing in Charcot-Marie-Tooth disease mice; format: in vivo
Description: 5-Week-old Charcot-Marie-Tooth disease mice were intravenously administered with 12 U/kg insulin and, after two weeks, examined for behavioral performance increase through rotarod testing as in Example 5.

[7] = test system: Charcot-Marie-Tooth disease mice; assay: Myelination of sciatic nerve tissue by transmission electron microscope; format: in vivo
Description: 5-Week-old Charcot-Marie-Tooth disease mice were intravenously administered with 12 U/kg insulin, and after two weeks, the sciatic nerve tissue was collected and observed by the same method as in the histological analysis through a transmission electron microscope in Example 7, and the results are shown in FIGS. 8A to 8C and Tables 12 and 13.

MPZ [8] = assay: MPZ in sciatic nerve tissue by confocal microscope; format: in vivo, mice; conditions: 12 U/kg intravenously, after two weeks, WT = 1, sham 0.20
Description: 5-Week-old Charcot-Marie-Tooth disease mice were intravenously administered with 12 U/kg insulin, and after two weeks, the sciatic nerve tissue was collected and observed through a confocal microscope in Example 7, and the results are shown in FIG. 8D and Table 14.

ERK and Akt pathways = assay: Western blot of P-ERK1/2, ERK1/2, P-AKT, AKT in insulin-treated Schwann cells; format: cell-based; conditions: 100 nM insulin, 24 hours
Experimental: After the cultured Schwann cells were treated with 100 nM insulin protein, the cells were harvested after 24 hours, and then the pellets were added in RIPA buffer, and the cells were disrupted using a sonicator and then centrifuged at 13,000 rpm at 4° C. for 15 minutes. Only the supernatant was subjected to protein quantification, and then 30 μg of proteins was loaded onto SDS-PAGE gel. Thereafter, the gel loaded on PVDF was transferred and then blocked with 5% skim milk for 1 hour, and then P-ERK1/2, ERK1/2, P-AKT, AKT, and β-actin antibodies were attached thereto at 4° C. for 24 hours. After the HRP-linked secondary antibody reaction and the washing process were performed, the bands of proteins were checked by using ECL solution.

Schwann cells [9] = assay: BrdU Cell Proliferation ELISA (colorimetric); format: cell-based; conditions: relative to 0 nM = 1
Experimental: as §1

PMP22 = PMP22 gene expression in sciatic nerve tissue by qRT-PCR; format: in vivo, mice
Experimental: In addition, it was examined using qRT-PCR analysis whether specific genes observable in each type of differentiated cells were expressed in differentiated adipocytes and chondrocytes. Non-differentiated cells and differentiated cells were harvested and the total RNA was extracted from the cell pellets using TRIZOL. The pellets were completely dissolved in 1 mL of TRIZOL, and then 0.2 mL of chloroform was added thereto, followed by shaking for 15 seconds and then standing at room temperature for 3 minutes. The resultant product was then separated into the bottom layer phenol-chloroform, the intermediate layer, and the upper layer colorless aqueous solution by centrifugation at 13,000 rpm and 4° C. for 15 minutes, and of these, only the upper layer colorless aqueous solution was separately collected and transferred into a new tube. After 0.5 mL of isopropyl alcohol was added to the tube and then vigorously mixed, the mixture was left at room temperature for 5 minutes. The resultant solution was again centrifuged at 13,000 rpm and 4° C. for 10 minutes, and the supernatant was discarded. Thereafter, 75% ethanol was added to pellets and again vigorously mixed, followed by centrifugation. The upper layer was discarded, and RNA pellets were dried for 5-10 minutes and dissolved in RNase-free water. […]

What does the source list for insulin?
CSA ([1]; Left gastrocnemius muscle, sham 0.302): 0.343; Volume ([1]; Left gastrocnemius muscle, sham 2.533): 2.879; CSA ([1]; Right gastrocnemius muscle, sham 0.290): 0.323; Volume ([1]; Right gastrocnemius muscle, sham 2.438): 2.712; Grip Strength [2]: 7.7; ATP (Schwann cells [3]; insulin 1 nM): 1.08; ATP (Schwann cells [3]; insulin 10 nM): 1.13; ATP (Schwann cells [3]; insulin 50 nM): 1.20; ATP (Schwann cells [3]; insulin 100 nM): 1.23; ATP (Schwann cells [3]; insulin 200 nM): 1.18; ATP (Schwann cells [3]; insulin 500 nM): 1.22; ATP (Schwann cells [3]; insulin 1000 nM): 1.06; Dystrophin (Dystrophin; gastrocnemius muscle, 12 U/kg intravenously, after two weeks, WT = 1, sham 0.27): 0.94; myogenesis (Dystrophin; in words, FIGS. 9A to 9E): increased myogenesis; MPZ (MPZ [4]): 44.12; optimum concentration for increasing the proliferation capacity of Schwann cells (Schwann cells [5]; from CCK-8, ATP and BrdU tests, 0-1000 nM): 100 nM; CCK-8 (Schwann cells [5]; insulin 1 nM): 1.03; CCK-8 (Schwann cells [5]; insulin 10 nM): 1.09; CCK-8 (Schwann cells [5]; insulin 50 nM): 1.16; CCK-8 (Schwann cells [5]; insulin 100 nM): 1.18; CCK-8 (Schwann cells [5]; insulin 200 nM): 1.19; CCK-8 (Schwann cells [5]; insulin 500 nM): 1.21; CCK-8 (Schwann cells [5]; insulin 1000 nM): 1.21; Rotarod ([6]; 5-week-old CMT mice, 12 U/kg intravenously, after two weeks, WT 112.3, sham 27.8): 67.9; behavioral performance of the mice ([6]; rotarod and grip strength, in words): increased the behavioral performance; myelination ([7]; in words, FIGS. 8A to 8G): increased myelination; myelination ([7]; sciatic nerve, TEM, 12 U/kg intravenously, after two weeks, WT = 100, sham 13.59): 82.99; Thickness ([7]; thickness of myelination, sciatic nerve, TEM, 12 U/kg intravenously, after two weeks, WT 3.32, sham 0.67): 2.53; MPZ (MPZ [8]): 0.69; activation of proliferation potency of Schwann cells through ERK and Akt pathways (ERK and Akt pathways): activated the proliferation potency of Schwann cells through ERK and Akt pathways; BrdU (Schwann cells [9]; insulin 1 nM): 1.13; BrdU (Schwann cells [9]; insulin 10 nM): 1.32; BrdU (Schwann cells [9]; insulin 50 nM): 1.39; BrdU (Schwann cells [9]; insulin 100 nM): 1.51; BrdU (Schwann cells [9]; insulin 200 nM): 1.50; BrdU (Schwann cells [9]; insulin 500 nM): 1.36; BrdU (Schwann cells [9]; insulin 1000 nM): 1.44; PMP22 expression levels (PMP22; in words): reduced the PMP22 expression levels; PMP22 (PMP22; sciatic nerve, 12 U/kg intravenously, after two weeks, WT = 1, sham 1305.36): 986.69
